Data set [1] deals with Kunming mice. Kind of data set: Acute toxicity test of mouse. The format is in vivo. Here is the method: Mice were administered by i.g. at doses of 5000 mg/kg and 2000 mg/kg. The drugs were dispersed with a 1% aqueous solution of hydroxypropyl methylcellulose (HPMC), and the administration volume was calculated in accordance with 0.2 mL/10 g.
The test system of data set [2] is chronic stress rat. The data set can be described thus: Chronic unpredictable stress model of rat: sucrose preference test. Type of data set: in vivo. The conditions noted are these: for Sucrose preference (%) Before modeling: baseline before modeling; for Sucrose preference (%) After 4 weeks of administration: stress rats. Here is the method:
(§1) Animals: SD rats, male, weighing 150-180 g, SPF grade.
(§2) Formulation and administration mode of drugs: All drugs for the test were suspended and dispersed with a 0.5% aqueous solution of CMC-Na, and shaken well before use. The rats were administered by i.g. at a volume of 10 mL/kg.
(§3) Rats were acclimatized for 3 days after purchase. First, 48 h of sucrose training was performed. After the training, a sucrose baseline test was performed. The rats were randomly and evenly grouped according to sucrose preference. Then, (dl) a 4-week chronic unpredictable stress (CUS) procedure was performed with the following stress methods: (1) food deprivation (fasting); (2) water deprivation; (3) stroboflash; (4) overnight illumination; (5) wet feeding (200 ml of water was added to 150 g of sawdust bedding); (6) noise stimulation (110 dB), 1 h; (7) swimming in cold water (the water temperature was 10° C.); (8) cage tilt (45 degrees of inclination); (9) tail pinch (at 1 cm away from the tail root) for 6 min; (10) restraint for 1-2 h. One of the above stress methods was used randomly every day, but water deprivation and fasting were separated. The corresponding drugs (including the blank control group and the positive drug group) were given 1 h before the stress in the morning every day. Behavior test was performed after the end of the chronic stress. d25, sucrose preference; d28, open-field; d31, novelty-suppressed feeding test.
Rats were acclimatized for 3 days after purchase. The rats were trained to give sucrose aqueous solution for 48 h without food and water supply, only 1% aqueous solution of sucrose was given for the first 24 h, and 1% aqueous solution of sucrose and tap water were simultaneously given for the next 24 h. After the end of the training, the rats were fed with normal food and water for 3 days, and then a sucrose preference baseline was determined: after fasting and water deprivation for 14 h, rats were allowed to drink freely two different bottles of water, one of which was 1% aqueous solution of sucrose and the other was tap water. The intakes (g) of rats from these two bottles within 1 hour were measured to calculate the sucrose preference. Sucrose preference (%)=intake of aqueous solution of sucrose/(intake of aqueous solution of sucrose+intake of tap water)×100%. On the 25th day of the stress program, the same method was used to perform the sucrose preference test again to calculate the sucrose preference.

For data set [3], the system named is SD rats. Kind of data set: Forced rat swimming test. Type of data set: in vivo. Conditions: 10 mg/kg i.g., 3 days, last 5 of 6 min. Here is the method:
(§4) Animals: Kunming mice, male, body weight 18-22 g, SPF grade; SD rats, male, body weight 150-180 g, SPF grade. The test was carried out after acclimatization, and the animal was fasted for 12 hours before the test.
(§5) All drugs for the test were suspended and dispersed in a 1% aqueous solution of hydroxypropyl methylcellulose (HPMC), and shaken well before use. […] The doses for administration were all 10 mg/kg. For the concentration and volume for administration, see J Psychiatry Neurosci 2004; 29(2):126-133. The mice were intraperitoneally administered in a volume of 0.5 mL/20 g; and the rats were administered by i.g. in a volume of 2 mL/100 g.
Rats were randomly divided into groups according to weight balance. Rats were administered by i.g. for three consecutive days, once a day. One hour after administration on the third day, the forced swimming test was performed. The rats were placed in a round glass jar with a height of 40 cm, an inner diameter of 18 cm, a water depth of 23 cm, and a water temperature of 25° C. The rats were allowed to swim for 6 minutes, and the accumulated immobility time in the last 5 minutes was recorded.

The subject of data set [4] is chronic stress rat. The data set can be described thus: Chronic unpredictable stress model of rat: novelty-suppressed feeding test. The format is in vivo. Conditions: stress rats, day 31. As for the experimental part:
as §1, §2, §3
On the 29th day of the stress program, the rats were fasted for 48 hours (not water deprivation) and then subjected to a novelty-suppressed feeding test (d31). The rats were placed in a novelty-suppressed feeding chamber with an open top. The bottom of the chamber was covered with a 2 cm thick sawdust. In the center of the chamber were placed 12 food balls of the same size. At the same time as the rats were put in, the latency of the rats to start eating within 5 min was calculated. The criterion for eating was that the animal started chewing food instead of just sniffing or toying with food. Rats that had not eaten within 5 minutes were recorded to have a feeding latency of 5 minutes. The test environment of the test should be kept as quiet as possible; the rats should be placed in the same position and direction each time; the environment of the test was preferably different from the breeding environment, and the light intensity of the test environment was greater than that of the breeding environment.

The test system of data set [5] is chronic stress rat. Kind of data set: Chronic unpredictable stress model of rat: open-field activity test. Conditions: stress rats, day 28, 5 min. Type of data set: in vivo. As for the experimental part: as §1, §2, §3
On the 28th day of the stress program, the rats were placed in the middle compartment of an open chamber, and a 60 W light bulb was placed 45 cm directly above them. The activities of the rats were observed within 5 minutes, including the number of times crossing a compartment horizontally (the number of times crossing into an adjacent compartment with three or more claws), and the number of times rearing (the number of times the forelimbs are more than 1 cm off the ground). Note: the test environment of the test should be kept as quiet as possible; the rats should be placed in the same position and direction each time; and the animal's excretion should be removed after each test.

The test system of data set [6] is Kunming mice. The data set can be described thus: Tail suspension test (TST) in mice. The format is in vivo, mouse. The conditions noted are these: 10 mg/kg intraperitoneal, 3 days, last 4 of 6 min. As for the experimental part: as §4, §5
Mice were randomly divided into groups according to weight balance. Intraperitoneal injection was administered for three consecutive days, once a day, and the tail suspension test were performed 30 minutes after the third day. The tail suspension box was 25×25×35 cm, and a small clip was connected with a rope at the center of the top plate. An adhesive tape was stuck to the tail of the mouse 2 cm away from the tail end, and the adhesive tape was clamped with the clip to make the mouse in an inverted position. The duration of immobility was recorded during the last 4 minutes of total 6 minutes observed.

`COc1ccc2cccc(CCNC(C)=O)c2c1` [Agomelatine, reference compound]: the “Acute reaction after single administration” value in data set [1] (mice, 2000 mg/kg i.g.) was “the mice all fell into a coma 15 minutes after the administration”; in data set [1] (mice, 5000 mg/kg i.g.), “the mice all fell into a coma 15 minutes after the administration and died successively after 12 hours”. Further, the “Adverse reactions during 14-day observation” value in data set [1] (mice, 2000 mg/kg i.g.) is “no obvious adverse reactions within 14 days after the administration”. In data set [1] (mice, 2000 mg/kg i.g.), the “Body weight compared with the blank group” value was “the body weight was lighter on the first and second days after the administration with a significant difference”. Further, the “Number of mice that died within 12 hours” value in data set [1] (mice, 2000 mg/kg i.g., group of 10) was found to be 4 mice. For the same compound, the “Sucrose preference (%) Before modeling” value in data set [2] (group later dosed 20 mg/kg) is 65.6 ± 10.1%. For the same compound, the results for the “Sucrose preference (%) After 4 weeks of administration” value in data set [2] (10 mg/kg i.g. daily), in data set [2] (20 mg/kg i.g. daily) and in data set [2] (40 mg/kg i.g. daily) were 84.3 ± 3.6 %, 66.6 ± 6.7% and 76.1 ± 5.3 %, respectively. Besides, the Immobility time in data set [3] is 73.5 ± 38.5 s; in data set [6] it was 75.1 ± 21.4 s. The Feeding latency in data set [4] (10 mg/kg i.g. daily) is 248 ± 21 ^ s; in data set [4] (20 mg/kg i.g. daily), 164 ± 26 s; in data set [4] (40 mg/kg i.g. daily), 130 ± 17 s. For the same compound, the “Number of times crossing a compartment horizontally” value was 33.4 ± 4.2 in data set [5] (10 mg/kg i.g. daily), 33.9 ± 2.4 in data set [5] (20 mg/kg i.g. daily) and 38.9 ± 3.6 in data set [5] (40 mg/kg i.g. daily). The “Number of times rearing” value is 18.1 ± 1.1 in data set [5] (10 mg/kg i.g. daily), 16.7 ± 1.8 in data set [5] (20 mg/kg i.g. daily) and 17.3 ± 1.1 in data set [5] (40 mg/kg i.g. daily).
Consider `[2H]C([2H])([2H])Oc1cc2c(CCNC(C)=O)cccc2cc1Cl` [Example 1, N-(2-(6-chloro-7-deuteromethoxy-naphthalen-1-yl)ethyl)acetamide], for which the “Acute reaction after single administration” value in data set [1] (mice, 2000 mg/kg i.g.) is “the activity of the mice became slightly smaller but there were no obvious adverse reactions”; in data set [1] (mice, 5000 mg/kg i.g.), “the mice began to fall into a coma 15 minutes after the administration, and within 24 hours the mice all awakened and returned to normal”. For the same compound, the “Adverse reactions during 14-day observation” value in data set [1] (mice, 2000 mg/kg i.g.) is listed as “no obvious adverse reactions within 14 days after the administration”; in data set [1] (mice, 5000 mg/kg i.g.), “no obvious adverse reactions within 14 days after the administration”. Moreover, the “Body weight compared with the blank group” value is on record as “no significant difference in body weight compared with the blank group” in data set [1] (mice, 2000 mg/kg i.g.) and “no significant difference in body weight compared with the blank group” in data set [1] (mice, 5000 mg/kg i.g.). Further, in data set [1] (mouse model, overall), the “Safety compared with control drug” value is on record as “safer than the control drug Agomelatine”. In addition, the figures for the “Sucrose preference (%) Before modeling” value in data set [2] (group later dosed 5 mg/kg) and in data set [2] (group later dosed 20 mg/kg) were 55.5 ± 7.8% and 60.1 ± 4.4%, respectively. Also, the “Sucrose preference (%) After 4 weeks of administration” value in data set [2] (5 mg/kg i.g. daily) is 80.4 ± 3.1 %; in data set [2] (10 mg/kg i.g. daily), 78.4 ± 4.4 %; in data set [2] (20 mg/kg i.g. daily), 78.8 ± 6.1 %; in data set [2] (40 mg/kg i.g. daily), 83.3 ± 1.9 %. Further, the results for the Immobility time in data set [3] and in data set [6] were 51.0 ± 32.4 s and 55.7 ± 19.7 s, respectively. Moreover, the Feeding latency is on record as 188 ± 21 s in data set [4] (5 mg/kg i.g. daily), 145 ± 23 s in data set [4] (10 mg/kg i.g. daily), 115 ± 16 s in data set [4] (20 mg/kg i.g. daily) and 117 ± 14 s in data set [4] (40 mg/kg i.g. daily). Moreover, the “Number of times crossing a compartment horizontally” value in data set [5] (5 mg/kg i.g. daily) is 36.8 ± 4.4; in data set [5] (10 mg/kg i.g. daily) it was 36.4 ± 4.2; in data set [5] (20 mg/kg i.g. daily) it was 36.5 ± 2.9; in data set [5] (40 mg/kg i.g. daily), 34.9 ± 3.0. In addition, the “Number of times rearing” value in data set [5] (5 mg/kg i.g. daily) is 15.1 ± 1.3; in data set [5] (10 mg/kg i.g. daily), 14.6 ± 1.7; in data set [5] (20 mg/kg i.g. daily), 15.9 ± 1.1; in data set [5] (40 mg/kg i.g. daily), 17 ± 1.5.
